{
  "source": "ChEMBL document CHEMBL1201862",
  "about": "“PubChem BioAssay data set” (2004)",
  "key": {"[1]": {"molecular_target": "Cytochrome P450 3A4 (Homo sapiens, UniProt P08684)", "details": "Potency"}, "[2]": {"molecular_target": "Cytochrome P450 2C9 (Homo sapiens, UniProt P11712)", "details": "Potency"}, "[3]": {"molecular_target": "Melanin-concentrating hormone receptor 1 (Homo sapiens, UniProt Q99705)", "assay": "Late-stage fluorescence-based counterscreen for antagonists of the G-protein coupled receptor 7 (GPR7): cell-based dose response assay to identify antagonists of the melanin-concentrating hormone receptor 1 (MCHR1). [Related pubchem assays (depositor defined):AID1861, AID1880, AID1952, AID2148, AID2251, AID2257, AID485339]", "type": "functional"}, "[4]": {"molecular_target": "Photoreceptor-specific nuclear receptor (Homo sapiens, UniProt Q9Y5X4)", "type": "functional"}, "[5]": {"molecular_target": "Peroxisome proliferator-activated receptor gamma/Nuclear receptor corepressor 2 (Homo sapiens, UniProt P37231+Q9Y618)", "type": "functional"}, "[6]": {"molecular_target": "Cytochrome P450 2C19 (Homo sapiens, UniProt P33261)", "assay": "Cytochrome panel assay with activity outcomes. Panel member name: p450-cyp2c19 Compounds with AC50 equal or less than 10 uM are considered active", "type": "functional", "details": "read-out: AC50"}, "[7]": {"molecular_target": "Major prion protein (Homo sapiens, UniProt P04156)", "type": "functional, cell-based"}, "[8]": {"assay": "cells"}, "[9]": {"test_system": "HEK293", "assay": "Fluorescence-based counterscreen for potentiators or agonists of NPY-Y2: cell-based high-throughput dose response assay to identify inhibitors of cyclic nucleotide gated ion channel (CNGC) activity. In this assay, the parental HEK293 cell line transfected with a cyclic-nucleotide gated ion channel (CNGC)-based cAMP sensor is used to measure inhibition of isoproterenol-induced CNGC activity by test compound.", "type": "functional", "details": "Homo sapiens"}, "[10]": {"molecular_target": "Neuropeptide Y receptor type 2 (Homo sapiens, UniProt P49146)", "assay": "Fluorescence-based cell-based high-throughput dose response assay for agonists of NPY-Y2. [Related pubchem assays: 1703 (Screening assay (CNGC inhibitors).), 1359 (Screening assay (NPY-Y2 potentiators or agonists).), 1304 (Screening assay (NPY-Y1 potentiators or agonists).), 1710 (Screening assay (NPY-Y2 agonists).), 1791 (Summary AID.)]", "type": "functional"}, "[11]": {"molecular_target": "Neuropeptide Y receptor type 1 (Homo sapiens, UniProt P25929)", "assay": "Fluorescence-based counterscreen for agonists of NPY-Y2: cell-based high-throughput dose response assay for agonists of NPY-Y1.", "type": "functional"}, "[12]": {"molecular_target": "Eukaryotic translation initiation factor 4E (Mus musculus, UniProt P63073)", "assay": "blockers of eIF4G binding by eIF4E – biochemical, TR-FRET, dose response (AID 855);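 also: potency for disrupting eIF4E binding to eIF4GI seen as loss of FRET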", "type": "functional"}, "[13]": {"test_system": "INS1", "assay": "INS-1E survival protection against cytokine death – cell-based, luminescence, retest, dose response (AID 449756);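 also: cell death triggered by IL-1 beta plus TNF-alpha plus IFN-gamma mixture; protective hits raise ATP signal compared with cytokine alone wells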", "type": "functional", "details": "Rattus norvegicus"}, "[14]": {"assay": "blockers of HIV-1 envelope-mediated cell-cell fusion – cherry-pick, dose response (AID 652057)", "type": "functional, cell-based"}, "[15]": {"assay": "off-target signal loss in HeLa-CEM21 co-culture – HeLa F-luc CTL cells, cherry-picked, counter-screen for HIV-1 Env fusion inhibitor project, dose response (AID 652040);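 also: potency for signal decrease marking cytotoxic or nonspecific inhibition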", "type": "functional, cell-based"}, "[16]": {"assay": "HIV-1 AD8 envelope cell-cell fusion blockers – cherry-pick, dose response (AID 652062);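 also: luciferase signal from cell-cell fusion driven by HIV-1 clade B AD8 Env; potency is for inhibitors of fusion seen as a drop in luminescence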", "type": "functional, cell-based"}},
  "note": "Active and inactive are the calls of the source.",
  "data": [
    {"smiles": "CCCCCCCC#Cc1ccccc1C(NC(=O)OC)C(C(=O)OC)C(=O)OC", "note": "(stereo unspecified)", "values": [
      {"measurement": "AC50", "setting": "[1]", "value": "3.16 µM (inconclusive)"},
      {"measurement": "AC50", "setting": "[2]", "value": "7.94 µM (inconclusive)"}
    ]},
    {"smiles": "Cc1ccc(-n2ncc(Cl)c(Oc3ccccc3)c2=O)cc1", "values": [
      {"measurement": "IC50", "setting": "[3]", "value": "13.7 µM (inactive)"}
    ]},
    {"smiles": "CCc1c(C(=O)O)[nH]c2ccc(Br)cc12", "values": [
      {"measurement": "IC50", "setting": "[4]", "value": "6.41 µM (active)"},
      {"measurement": "IC50", "setting": "[5]", "value": "7.33 µM (active)"},
      {"measurement": "AC50", "setting": "[6]", "value": "11.2 µM (inconclusive)"},
      {"measurement": "IC50", "setting": "[7]", "value": "5.95 µM (active)"},
      {"measurement": "IC50", "setting": "[8]", "value": "> 138 µM (inactive)"}
    ]},
    {"smiles": "N#C/C(=N\\Nc1ccc(Cl)cc1)C(=O)c1ccccc1", "values": [
      {"measurement": "EC50", "setting": "[9]", "value": "7.25 µM (active)"},
      {"measurement": "EC50", "setting": "[10]", "value": "9.92 µM (active)"},
      {"measurement": "EC50", "setting": "[11]", "value": "9.38 µM (active)"},
      {"measurement": "IC50", "setting": "[12]", "value": "> 64 µM (inactive)"},
      {"measurement": "AC50", "setting": "[13]", "value": "3.07 µM (active)"},
      {"measurement": "AC50", "setting": "[14]", "value": "39.2 µM (active)"},
      {"measurement": "AC50", "setting": "[15]", "value": "42 µM (active)"},
      {"measurement": "AC50", "setting": "[16]", "value": "24.5 µM (active)"}
    ]}
  ]
}
